Records with an inconclusive call do not appear. The source made the active and inactive calls. How the calls were made is not given here.
The compounds below were run against Replicative DNA helicase DnaB (Mycobacterium tuberculosis (strain ATCC 25618 / H37Rv)) (UniProt P9WMR3) (assay: DnaB intein splicing inhibitors, dose response, biochemical, M. tuberculosis H37Rv, cell-free fluorescence (AID 449749)).
Chain of Replicative DNA helicase DnaB (Mycobacterium tuberculosis (strain ATCC 25618 / H37Rv)) (P9WMR3 whole entry, looked up): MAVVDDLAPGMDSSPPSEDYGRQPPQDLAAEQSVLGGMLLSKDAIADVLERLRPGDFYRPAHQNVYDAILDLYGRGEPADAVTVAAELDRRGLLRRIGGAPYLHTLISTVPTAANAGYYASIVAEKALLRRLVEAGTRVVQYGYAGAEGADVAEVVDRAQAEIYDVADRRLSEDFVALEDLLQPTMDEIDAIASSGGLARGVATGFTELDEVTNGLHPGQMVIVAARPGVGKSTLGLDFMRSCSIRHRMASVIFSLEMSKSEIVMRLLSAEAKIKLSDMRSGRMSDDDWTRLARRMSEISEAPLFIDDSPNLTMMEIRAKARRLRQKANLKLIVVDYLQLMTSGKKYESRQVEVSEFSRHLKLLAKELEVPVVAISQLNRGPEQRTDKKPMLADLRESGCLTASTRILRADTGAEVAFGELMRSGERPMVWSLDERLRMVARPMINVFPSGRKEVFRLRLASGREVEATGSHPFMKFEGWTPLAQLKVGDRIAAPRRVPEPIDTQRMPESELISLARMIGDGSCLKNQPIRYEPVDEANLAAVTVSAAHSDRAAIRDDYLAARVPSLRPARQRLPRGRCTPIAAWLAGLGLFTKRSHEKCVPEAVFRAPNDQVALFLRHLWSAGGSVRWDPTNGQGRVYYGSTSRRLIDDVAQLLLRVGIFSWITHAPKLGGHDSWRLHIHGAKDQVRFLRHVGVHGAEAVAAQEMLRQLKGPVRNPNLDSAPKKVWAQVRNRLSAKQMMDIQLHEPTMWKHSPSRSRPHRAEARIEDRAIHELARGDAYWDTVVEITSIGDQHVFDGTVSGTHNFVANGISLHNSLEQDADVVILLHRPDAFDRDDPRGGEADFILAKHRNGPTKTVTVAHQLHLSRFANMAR

Row | SMILES | AC50
1 | Oc1cc(O)c2c(c1)O[C@H](c1ccc(O)c(O)c1)[C@H](O)C2 | > 38 µM (inactive)
2 | Cc1[nH][nH]c(=O)c1C(c1ccccc1[N+](=O)[O-])C(C#N)C#N (centres undefined) | > 12 µM (inactive)
3 | COc1ccc2ccc3c(c2c1)N=C[C@]1(O3)N(C)c2ccccc2C1(C)C | > 38 µM (inactive)
4 | Cc1[nH][nH]c(=O)c1[C@@H](c1ccccc1[N+](=O)[O-])C(C#N)C#N | > 38 µM (inactive)

Source: PubChem BioAssay AID449749 (Broad Institute, 2010)
